The values that follow come from patent US7745636B2, “Hepatitis C virus inhibitors” (Bristol-Myers Squibb Company, priority 2006, dated 2010).

What is called EC50 is the concentration at which the effect is half-maximal.

The first assay deals with HCV 1b-377-neo replicon cells. Briefly: HCV Replicon assay, HCV 1b-377-neo replicon cells. In kind it is cell-based, HCV 1b genotype. To be noted: Hepatitis C virus, Table 2, read-out: Range (EC50 against HCV 1b).
With `COC(=O)N[C@H](C(=O)N1CCC[C@H]1c1ncc(-c2cnc(-c3ccc(-c4[nH]c([C@@H]5CCCN5C(=O)[C@@H](NC(=O)OC)C5CC5)nc4C(F)(F)F)cc3)nc2)[nH]1)C1CC1` [Example J49, methyl ((1S)-1-cyclopropyl-2-((2S)-2-(5-(4-(5-(2-((2S)-1-((2S)-2-cyclopropyl-2-((methoxycarbonyl)amino)acetyl)-2-pyrrolidinyl)-1H-imidazol-5-yl)-2-pyrimidinyl)phenyl)-4-(trifluoromethyl)-1H-imidazol-2-yl)-1-pyrrolidinyl)-2-oxoethyl)carbamate], the 50% effective concentration (EC50) lay within 0.001 to 0.999 nM.
Regarding `COC(=O)N[C@@H](C)C(=O)N1CCC[C@H]1c1ncc(-c2cnc(-c3ccc(-c4[nH]c([C@@H]5CCCN5C(=O)[C@H](C)NC(=O)OC)nc4C(F)(F)F)cc3)nc2)[nH]1` [Example J50, methyl ((1S)-2-((2S)-2-(5-(4-(5-(2-((2S)-1-(N-(methoxycarbonyl)-L-alanyl)-2-pyrrolidinyl)-1H-imidazol-5-yl)-2-pyrimidinyl)phenyl)-4-(trifluoromethyl)-1H-imidazol-2-yl)-1-pyrrolidinyl)-1-methyl-2-oxoethyl)carbamate], the EC50 lay within 0.001 to 0.999 nM.
On to `COC(=O)N[C@H](C(=O)N1CCC[C@H]1c1ncc(-c2ccc(-c3ccc(-c4cnc([C@@H]5CCCN5C(=O)[C@@H](NC(=O)OC)C(C)C)[nH]4)cc3C(=O)O)cc2)[nH]1)C(C)C` [Example M114, 4,4′-bis(2-((2S)-1-(N-(methoxycarbonyl)-L-valyl)-2-pyrrolidinyl)-1H-imidazol-5-yl)-2-biphenylcarboxylic acid], for which the EC50 was 1000 to 10000 nM.
On to `COC(=O)N[C@H](C(=O)N1CCC[C@H]1c1ncc(-c2ccc(-c3ccc(-c4cnc([C@@H]5CCCN5C(=O)[C@@H](NC(=O)OC)C(C)C)[nH]4)cc3C(N)=O)cc2)[nH]1)C(C)C` [Example M118, methyl((1S)-1-(((2S)-2-(5-(2′-carbamoyl-4′-(2-((2S)-1-((2S)-2-((methoxycarbonyl)amino)-3-methylbutanoyl)-2-pyrrolidinyl)-1H-imidazol-5-yl)-4-biphenylyl)-1H-imidazol-2-yl)-1-pyrrolidinyl)carbonyl)-2-methylpropyl)carbamate], for which the EC50 was 1000 to 10000 nM.
For `COC(=O)N[C@H](C(=O)N1CCC[C@H]1c1ncc(-c2ccc(-c3ccc(-c4cnc([C@@H]5CCCN5C(=O)[C@@H](NC(=O)OC)C(C)C)[nH]4)cc3CO)cc2)[nH]1)C(C)C` [Example M119, methyl((1S)-1-(((2S)-2-(5-(2-(hydroxymethyl)-4′-(2-((2S)-1-((2S)-2-((methoxycarbonyl)amino)-3-methylbutanoyl)-2-pyrrolidinyl)-1H-imidazol-5-yl)-4-biphenylyl)-1H-imidazol-2-yl)-1-pyrrolidinyl)carbonyl)-2-methylpropyl)carbamate], the EC50 is 100 to 999 nM.
Turning to `COC(=O)N[C@H](C(=O)N1CCC[C@H]1c1ncc(-c2ccc(-c3ccc(-c4cnc([C@@H]5CCCN5C(=O)[C@@H](NC(=O)OC)C(C)C)[nH]4)cc3CN(C)C)cc2)[nH]1)C(C)C` [Example M120, methyl((1S)-1-(((2S)-2-(5-(2-((dimethylamino)methyl)-4′-(2-((2S)-1-((2S)-2-((methoxycarbonyl)amino)-3-methylbutanoyl)-2-pyrrolidinyl)-1H-imidazol-5-yl)-4-biphenylyl)-1H-imidazol-2-yl)-1-pyrrolidinyl)carbonyl)-2-methylpropyl)carbamate], the half-maximal effective concentration (EC50) lay within 100 to 999 nM.
For the molecule `COC(=O)N[C@@H](C(=O)N1CCC[C@H]1c1ncc(-c2ccc(-c3ccc(-c4cnc([C@@H]5CCCN5C(=O)[C@H](NC(=O)OC)c5ccccc5)[nH]4)cc3CN(C)C)cc2)[nH]1)c1ccccc1` [Example M121, dimethyl((2-((dimethylamino)methyl)-4,4′-biphenyldiyl)bis(1H-imidazole-5,2-diyl(2S)-2,1-pyrrolidinediyl((1R)-2-oxo-1-phenyl-2,1-ethanediyl)))biscarbamate], the concentration for a half-maximal effect (EC50) was in the range of 100 to 999 nM.
Take `COC(=O)N[C@H](C(=O)N1[C@H](c2ncc(-c3ccc(-c4ccc(-c5cnc([C@@H]6C[C@@H]7C[C@@H]7N6C(=O)[C@@H](NC(=O)OC)C(C)C)[nH]5)cc4)cc3)[nH]2)C[C@@H]2C[C@@H]21)C(C)C` [Example M122, methyl((1S)-1-(((1S,3S,5S)-3-(5-(4′-(2-((1S,3S,5S)-2-((2S)-2-((methoxycarbonyl)amino)-3-methylbutanoyl)-2-azabicyclo[3.1.0]hex-3-yl)-1H-imidazol-5-yl)-4-biphenylyl)-1H-imidazol-2-yl)-2-azabicyclo[3.1.0]hex-2-yl)carbonyl)-2-methylpropyl)carbamate]: the concentration giving a half-maximal response (EC50) lay within 1 to 99 nM.
With `COCC[C@H](NC(=O)OC)C(=O)N[C@H](c1nc(-c2ccc(-c3ccc(-c4c[nH]c([C@@H]5CCCN5C(=O)[C@H](CCOC)NC(=O)OC)n4)cc3)cc2)c[nH]1)C(C)C` [Example R20, methyl ((1S)-3-methoxy-1-(((2S)-2-(4-(4′-(2-((1S)-1-((N-(methoxycarbonyl)-O-methyl-L-homoseryl)amino)-2-methylpropyl)-1H-imidazol-4-yl)-4-biphenylyl)-1H-imidazol-2-yl)-1-pyrrolidinyl)carbonyl)propyl)carbamate], the EC50 was in the range of 0.001 to 0.999 nM.
Turning to `COC(=O)N[C@H](C(=O)N[C@H](c1ncc(-c2ccc(-c3ccc(-c4cnc([C@@H]5CCCN5C(=O)[C@@H](NC(=O)OC)C(C)C)[nH]4)cc3)cc2)[nH]1)[C@@H](C)O)C(C)C` [Example R29], the EC50 lay within 0.001 to 0.999 nM.
On the same count and under the same terms, under `COC(=O)N[C@H](C(=O)Nc1ncc(-c2ccc(-c3ccc(-c4cnc([C@@H]5CCCN5C(=O)[C@@H](NC(=O)OC)C(C)C)[nH]4)cc3)cc2)[nH]1)C(C)C` [Example R33, (S)-2-methoxycarbonylamino-N-(5-(4′-(2-((S)-1-((S)-2-methoxycarbonylamino-3-methylbutanoyl)pyrrolidin-2-yl)-1H-imidazol-5-yl)biphenyl-4-yl)-1H-imidazol-2-yl)-3-methylbutanamide] stands 1 to 99 nM; under `COC(=O)N[C@H](C(=O)N[C@H](c1ncc(-c2ccc(-c3ccc(-c4cnc([C@@H]5CCCN5C(=O)[C@@H](NC(=O)OC)C(C)C)[nH]4)cc3)cc2)[nH]1)C(C)OCc1ccccc1)C(C)C` (stereo partly shown) [Example R34], 0.001 to 0.999 nM.
For the molecule `C[C@@H](OCc1ccccc1)[C@H](N)c1ncc(-c2ccc(-c3ccc(-c4cnc([C@@H]5CCCN5)[nH]4)cc3)cc2)[nH]1` [Example R35], the EC50 was in the range of 100 to 999 nM.
In the case of `COC(=O)NC(C(=O)Nc1ncc(-c2ccc(-c3ccc(-c4cnc([C@@H]5CCCN5C(O)[C@@H](NC(=O)OC)C(C)C)[nH]4)cc3)cc2)[nH]1)C(C)C` (stereo partly shown) [Example R36], the EC50 lay in the range of 0.001 to 0.999 nM.
`COC(=O)N[C@H](C(=O)N[C@H](c1nc(-c2ccc(-c3ccc(-c4c[nH]c(C5CCCN5C(=O)[C@@H](NC(=O)OC)[C@@H](C)OC)n4)cc3)cc2)c[nH]1)C(C)C)[C@@H](C)OC` (stereo partly shown) [Example R37]: the 50% effective concentration (EC50) was 0.001 to 0.999 nM.
Still for that read-out and setting: then `COC(=O)N[C@H](C(=O)N1CCC[C@H]1c1ncc(-c2ccc(-c3ccc(-c4cnc([C@@H]5CCCN5C(=O)[C@@H](Nc5ncccn5)C(C)C)[nH]4)cc3)cc2)[nH]1)C(C)C` [cj-11, methyl ((1S)-2-methyl-1-(((2S)-2-(5-(4′-(2-((2S)-1-(N-2-pyrimidinyl-L-valyl)-2-pyrrolidinyl)-1H-imidazol-5-yl)-4-biphenylyl)-1H-imidazol-2-yl)-1-pyrrolidinyl)carbonyl)propyl)carbamate], with 0.001 to 0.999 nM.
On the same count and under the same terms, then `COC(=O)N[C@H](C(=O)N1CCC[C@H]1c1ncc(-c2ccc(-c3ccc(-c4cnc([C@@H]5CCCN5C(=O)[C@@H](Nc5noc(N)n5)C(C)C)[nH]4)cc3)cc2)[nH]1)C(C)C` [cj-16, methyl((1S)-1-(((2S)-2-(5-(4′-(2-((2S)-1-(N-(5-amino-1,2,4-oxadiazol-3-yl)-L-valyl)-2-pyrrolidinyl)-1H-imidazol-5-yl)-4-biphenylyl)-1H-imidazol-2-yl)-1-pyrrolidinyl)carbonyl)-2-methylpropyl)carbamate], with 0.001 to 0.999 nM.

Still in this assay, the particulars now being: Table 2, read-out: Range (EC50 against HCV 1b).
In the case of `COC(=O)NC(C(=O)NC(C)c1ncc(-c2ccc(-c3ccc(-c4cnc(C5CCCN5C(=O)C(NC(=O)OC)C(C)C)[nH]4)cc3)cc2)[nH]1)C(C)C` (stereo not shown) [Example R26], the 50% effective concentration (EC50) lay within 0.001 to 0.999 nM.
Consider `COC(=O)NC(C(=O)NC(C)c1ncc(-c2ccc(-c3ccc(-c4cnc(C5CCCN5C(=O)C(NC(=O)OC)C(C)OC)[nH]4)cc3)cc2)[nH]1)C(C)OC` (stereo not shown) [Example R27], for which the EC50 lay within 0.001 to 0.999 nM.
For the molecule `O=C1N[C@H](C(=O)N2CCC[C@H]2c2ncc(-c3ccc(-c4ccc(-c5cnc([C@@H]6CCCN6C(=O)[C@@H]6CCOC(=O)N6)[nH]5)cc4)cc3)[nH]2)CCO1` [LS11], the EC50 was 1000 to 10000 nM.
With `C=CCCOC(=O)N[C@H](C(=O)N1CCC[C@H]1c1ncc(-c2ccc(-c3ccc(-c4cnc([C@@H]5CCCN5C(=O)[C@@H](NC(=O)OCCC=C)C(C)C)[nH]4)cc3)cc2)[nH]1)C(C)C` [LS16], the concentration for a half-maximal effect (EC50) lay in the range of 1 to 99 nM.
Consider `CNCC(=O)N1CCC[C@H]1c1ncc(-c2ccc(-c3ccc(-c4cnc([C@@H]5CCCN5C(=O)[C@@H](NC(=O)OC)C(C)C)[nH]4)cc3)cc2)[nH]1` [LS20], for which the EC50 was in the range of 0.001 to 0.999 nM.
Turning to `COC(=O)N[C@H](C(=O)N1CCC[C@H]1c1ncc(-c2ccc(-c3ccc(-c4cnc([C@@H]5CCCN5C(=O)CNCc5ccccc5)[nH]4)cc3)cc2)[nH]1)C(C)C` [LS22], the EC50 was in the range of 0.001 to 0.999 nM.
The same measure, in the same setting: then `COC(=O)N[C@H](C(=O)N1CCC[C@H]1c1ncc(-c2ccc(-c3ccc(-c4cnc([C@@H]5CCCN5C(=O)CNC(C)C)[nH]4)cc3)cc2)[nH]1)C(C)C` [LS25], with 0.001 to 0.999 nM; and `COC(=O)N[C@H](C(=O)N1CCC[C@H]1c1ncc(-c2ccc(-c3ccc(-c4cnc([C@@H]5CCCN5C(=O)CN(C(C)C)C(C)C)[nH]4)cc3)cc2)[nH]1)C(C)C` [LS26], with 0.001 to 0.999 nM; and `CC(C)[C@H](NC(=O)N(C)C)C(=O)O` [OL-2], with 0.001 to 0.999 nM.
On the same count and under the same terms, under `CC(C)[C@H](NC(=O)OCCF)C(=O)O` [OL-4] stands 0.001 to 0.999 nM.
With `CCC(CC)[C@H](NC(=O)OC)C(=O)O` [OL-5], the EC50 is 0.001 to 0.999 nM.
